From ChEMBL document CHEMBL4382234, “Fluoroquinolone-isatin hybrids and their biological activities” (Eur J Med Chem, 2019)
Converted amounts (≈) assume the structure as drawn.

Key:
Assay type in all cases: functional
[1] = system: Mycobacterium tuberculosis; assay: Antimycobacterial activity against Mycobacterium tuberculosis H37Rv ATCC 27294 by rapid direct susceptibility test
[2] = system: Mycolicibacterium smegmatis; assay: Antimycobacterial activity against Mycobacterium smegmatis CMCC 93202 after 72 hrs by double dilution method; settings: CMCC 93202, 72 h
[3] = system: Mycobacterium tuberculosis; assay: Antitubercular activity against Mycobacterium tuberculosis H37Rv by microplate alamar blue assay
[4] = system: Mycobacterium tuberculosis; assay: Antimycobacterial activity against Mycobacterium tuberculosis H37Rv after 3 to 7 days by rapid direct susceptibility test

| SMILES | MIC [1] [µg/mL] | MIC [2] [µg/mL] | MIC [3] [µg/mL] | MIC [4] [µg/mL] |
| --- | --- | --- | --- | --- |
| CO/N=C1\C(=O)N(CCN2CCC[C@H]3CN(c4c(F)cc5c(=O)c(C(=O)O)cn(C6CC6)c5c4OC)C[C@H]32)c2ccccc21 | 0.39 to 16 (≈ 0.646 to 26.5 µM) | 0.39 to 16 (≈ 0.646 to 26.5 µM) |  |  |
| COc1c(N2C[C@@H]3CCCN(CCN4C(=O)/C(=N\NC(N)=S)c5cc(F)ccc54)[C@@H]3C2)c(F)cc2c(=O)c(C(=O)O)cn(C3CC3)c12 | 0.39 to 16 (≈ 0.586 to 24 µM) | 0.39 to 16 (≈ 0.586 to 24 µM) |  |  |
| NC[C@H]1O[C@H](O[C@H]2[C@H](O)[C@@H](O[C@H]3O[C@H](CO)[C@@H](O)[C@H](N)[C@H]3O)[C@H](N)C[C@@H]2N)[C@H](O)[C@@H](O)[C@@H]1O [KANAMYCIN] |  |  | 5 (≈ 10.3 µM) |  |
| COc1c(N2CCNC(C)C2)c(F)cc2c(=O)c(C(=O)O)cn(C3CC3)c12 (stereo not drawn) [GATIFLOXACIN] |  |  |  | 0.5 (≈ 1.33 µM) |
| COc1c(N2C[C@@H]3CCCN(CN4C(=O)/C(=N\O)c5cc(F)ccc54)[C@@H]3C2)c(F)cc2c(=O)c(C(=O)O)cn(C3CC3)c12 | 0.39 to 16 (≈ 0.657 to 27 µM) | 0.39 to 16 (≈ 0.657 to 27 µM) |  |  |
| COc1c(N2C[C@@H]3CCCN(Cc4cn(CCN5C(=O)C(=O)c6cc(Br)ccc65)nn4)[C@@H]3C2)c(F)cc2c(=O)c(C(=O)O)cn(C3CC3)c12 |  |  |  | 0.1 to 0.78 (≈ 0.136 to 1.06 µM) |
| CCn1cc(C(=O)O)c(=O)c2cc(F)c(N3CCN(CN4C(=O)/C(=N\c5ncc(Cc6cc(OC)c(OC)c(OC)c6)c(N)n5)c5cc(F)ccc54)C(C)C3)c(F)c21 (stereo not drawn) |  |  | 0.78 to 3.13 (≈ 0.974 to 3.91 µM) |  |
| CCO/N=C1/C(=O)N(CCn2cc(CN3CCC[C@H]4CN(c5c(F)cc6c(=O)c(C(=O)O)cn(C7CC7)c6c5OC)C[C@H]43)nn2)c2ccc(Br)cc21 |  |  |  | 0.1 to 0.78 (≈ 0.129 to 1 µM) |
| NNC(=O)c1ccncc1 [ISONIAZID] |  |  | 0.05 (≈ 0.365 µM) | > 128 |
| COc1c(N2C[C@@H]3CCCN(Cc4cn(CCN5C(=O)/C(=N/O)c6cc(Br)ccc65)nn4)[C@@H]3C2)c(F)cc2c(=O)c(C(=O)O)cn(C3CC3)c12 |  |  |  | 0.1 to 0.78 (≈ 0.133 to 1.04 µM) |
| COc1c(N2C[C@@H]3CCCN(CN4C(=O)C(=O)c5ccccc54)[C@@H]3C2)c(F)cc2c(=O)c(C(=O)O)cn(C3CC3)c12 | 0.39 to 16 (≈ 0.696 to 28.5 µM) | 0.39 to 16 (≈ 0.696 to 28.5 µM) |  |  |
| COc1c(N2C[C@@H]3CCCN(CCN4C(=O)/C(=N\NC(N)=O)c5cc(F)ccc54)[C@@H]3C2)c(F)cc2c(=O)c(C(=O)O)cn(C3CC3)c12 | 0.39 to 16 (≈ 0.6 to 24.6 µM) | 0.39 to 16 (≈ 0.6 to 24.6 µM) |  |  |
| CCO/N=C1\C(=O)N(CN2CCC[C@H]3CN(c4c(F)cc5c(=O)c(C(=O)O)cn(C6CC6)c5c4OC)C[C@H]32)c2ccc(F)cc21 | 0.39 to 16 (≈ 0.627 to 25.7 µM) | 0.39 to 16 (≈ 0.627 to 25.7 µM) |  |  |
| COc1c(N2C[C@@H]3CCCN[C@@H]3C2)c(F)cc2c(=O)c(C(=O)O)cn(C3CC3)c12 [MOXIFLOXACIN] | 0.1 to 1 (≈ 0.249 to 2.49 µM) | 0.1 to 1 (≈ 0.249 to 2.49 µM) |  | 0.1 (≈ 0.249 µM) |
| COc1c(N2C[C@@H]3CCCN(CN4C(=O)/C(=N\NC(N)=S)c5ccccc54)[C@@H]3C2)c(F)cc2c(=O)c(C(=O)O)cn(C3CC3)c12 | 0.39 to 16 (≈ 0.615 to 25.2 µM) | 0.39 to 16 (≈ 0.615 to 25.2 µM) |  |  |
| COc1c(N2C[C@@H]3CCCN(CCN4C(=O)C(=O)c5cc(F)ccc54)[C@@H]3C2)c(F)cc2c(=O)c(C(=O)O)cn(C3CC3)c12 | 0.39 to 16 (≈ 0.658 to 27 µM) | 0.39 to 16 (≈ 0.658 to 27 µM) |  |  |
| Cc1ccc2c(c1)/C(=N\NC(N)=O)C(=O)N2CCCN1CCN(c2cc3c(cc2F)c(=O)c(C(=O)O)cn3C2CC2)CC1 |  |  |  | 0.1 to 64 (≈ 0.17 to 109 µM) |
| COc1c(N2C[C@@H]3CCCN(CCN4C(=O)/C(=N\NC(N)=S)c5ccccc54)[C@@H]3C2)c(F)cc2c(=O)c(C(=O)O)cn(C3CC3)c12 | 0.39 to 16 (≈ 0.602 to 24.7 µM) | 0.39 to 16 (≈ 0.602 to 24.7 µM) |  |  |
| COc1c(N2C[C@@H]3CCCN(CN4C(=O)/C(=N\NC(N)=O)c5ccccc54)[C@@H]3C2)c(F)cc2c(=O)c(C(=O)O)cn(C3CC3)c12 | 0.39 to 16 (≈ 0.631 to 25.9 µM) | 0.39 to 16 (≈ 0.631 to 25.9 µM) |  |  |
| O=C(O)c1cn(C2CC2)c2cc(N3CCN(CCCN4C(=O)/C(=N/O)c5ccccc54)CC3)c(F)cc2c1=O |  |  |  | 0.1 to 64 (≈ 0.187 to 120 µM) |
| Cc1ccc2c(c1)/C(=N\O)C(=O)N2CCCN1CCN(c2cc3c(cc2F)c(=O)c(C(=O)O)cn3C2CC2)CC1 |  |  |  | 0.1 to 64 (≈ 0.183 to 117 µM) |
| CCO/N=C1\C(=O)N(CCN2CCC[C@H]3CN(c4c(F)cc5c(=O)c(C(=O)O)cn(C6CC6)c5c4OC)C[C@H]32)c2ccc(F)cc21 | 0.39 to 16 (≈ 0.614 to 25.2 µM) | 0.39 to 16 (≈ 0.614 to 25.2 µM) |  |  |
| CCc1cc(C(N)=S)ccn1 [ETHIONAMIDE] |  |  | 2.5 (≈ 15 µM) |  |
| CO[C@H]1/C=C/O[C@@]2(C)Oc3c(C)c(O)c4c(O)c(c(/C=N/N5CCN(C)CC5)c(O)c4c3C2=O)NC(=O)/C(C)=C\C=C\[C@H](C)[C@H](O)[C@@H](C)[C@@H](O)[C@@H](C)[C@H](OC(C)=O)[C@@H]1C [RIFAMPIN] |  |  | 0.125 (≈ 0.152 µM) | 0.25 to 0.39 (≈ 0.304 to 0.474 µM) |
| CCn1cc(C(=O)O)c(=O)c2cc(F)c(N3CCN(CN4C(=O)/C(=N\c5ncc(Cc6cc(OC)c(OC)c(OC)c6)c(N)n5)c5cc(C)ccc54)C(C)C3)c(F)c21 (stereo not drawn) |  |  | 0.78 to 3.13 (≈ 0.979 to 3.93 µM) |  |
| COc1c(N2C[C@@H]3CCCN(CN4C(=O)/C(=N\NC(N)=S)c5cc(F)ccc54)[C@@H]3C2)c(F)cc2c(=O)c(C(=O)O)cn(C3CC3)c12 | 0.39 to 16 (≈ 0.598 to 24.6 µM) | 0.39 to 16 (≈ 0.598 to 24.6 µM) |  |  |
| COc1c(N2C[C@@H]3CCCN(Cc4cn(CCN5C(=O)/C(=N/NC(N)=O)c6ccccc65)nn4)[C@@H]3C2)c(F)cc2c(=O)c(C(=O)O)cn(C3CC3)c12 |  |  |  | 0.1 to 0.78 (≈ 0.14 to 1.09 µM) |
